Laboratory results as given in the supplement of paper PMC10307832.

Tests used:
Test in all cases: relative viability (nuclei count vs DMSO), 5 days (fraction); higher = more cells survive
[1] = compound: CC1=C(C(=O)N2C=CSC2=N1)CCN3CCC(=C(C4=CC=CC=C4)C5=CC=C(C=C5)F)CC3 + CC(=O)Nc1cccc(-n2c(=O)n(C3CC3)c(=O)c3c(Nc4ccc(I)cc4F)n(C)c(=O)c(C)c32)c1 [Trametinib] (partner 0.02 µM)
Outline: (§1)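 Relative viability divides the nuclei count in treated wells by that in vehicle wells. Lung cancer cell lines were seeded in 1536-well plates, dosed by pin tool the next day, and fixed and stained after 5 days in one step with final 0.05% Triton X-100, 1% formaldehyde and 1 ug/ml Hoechst. Dosing was a single drug or a fixed anchor-drug dose plus five library-drug doses (not always all listed) in √10 steps, and values are medians of duplicate plates imaged at 4×.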

[2] = compound: CC1=C(C(=O)N2C=CSC2=N1)CCN3CCC(=C(C4=CC=CC=C4)C5=CC=C(C=C5)F)CC3 + COc1cccc2cc(-c3nc([C@H]4CC[C@H](C(=O)O)CC4)n4ncnc(N)c34)[nH]c12 [OSI-027] (partner 0.5 µM)
Outline: as §1

[3] = compound: CC1=C(C(=O)N2C=CSC2=N1)CCN3CCC(=C(C4=CC=CC=C4)C5=CC=C(C=C5)F)CC3 + C[C@@H](Oc1cc(-c2cnn(C3CCNCC3)c2)cnc1N)c1c(Cl)ccc(F)c1Cl [Crizotinib] (partner 1 µM)
Outline: as §1

[4] = compound: CC1=C(C(=O)N2C=CSC2=N1)CCN3CCC(=C(C4=CC=CC=C4)C5=CC=C(C=C5)F)CC3 + N=C(N)NC(=N)NCCc1ccccc1 [Phenformin] (partner 250 µM)
Outline: as §1

Cell Line	relative viability ([1]; first compound 0.08 µM)	relative viability ([1]; first compound 0.253 µM)	relative viability ([1]; first compound 0.8 µM)	relative viability ([1]; first compound 2.53 µM)	relative viability ([1]; first compound 8 µM)	relative viability ([2]; first compound 0.08 µM)	relative viability ([2]; first compound 0.253 µM)	relative viability ([2]; first compound 0.8 µM)	relative viability ([2]; first compound 2.53 µM)	relative viability ([2]; first compound 8 µM)	relative viability ([3]; first compound 0.253 µM)	relative viability ([3]; first compound 0.8 µM)	relative viability ([3]; first compound 2.53 µM)	relative viability ([3]; first compound 8 µM)	relative viability ([4]; first compound 0.08 µM)	relative viability ([4]; first compound 0.253 µM)	relative viability ([4]; first compound 0.8 µM)	relative viability ([4]; first compound 2.53 µM)	relative viability ([4]; first compound 8 µM)	relative viability ([3]; first compound 0.08 µM)
HCC-366	0.422	0.384	0.377	0.404	0.216	1.17	1.2	1.04	1.12	0.252	0.539	0.587	0.448	0.616	0.638	0.65	0.626	0.579	0.472	–
HCC-827	0.483	0.503	0.501	0.62	0.53	0.761	0.776	0.842	0.833	0.62	0.924	0.911	0.98	0.946	0.4	0.413	0.444	0.398	0.407	0.898
HOP-62	0.34	0.365	0.37	0.422	0.225	0.92	0.771	0.837	0.824	0.488	0.939	0.744	0.701	0.442	0.711	0.774	0.678	0.491	0.381	1.01
IA-LM	–	–	–	–	–	–	–	–	–	–	0.713	1.09	0.944	0.502	–	–	–	–	–	–
LC-2-ad	0.943	0.98	0.938	0.95	0.606	0.876	0.994	0.87	0.913	0.663	0.342	0.415	0.522	0.475	0.656	0.656	0.543	0.62	0.566	0.46
LCLC-97TM1	0.183	0.18	0.23	0.172	0.151	0.585	0.585	0.507	0.487	0.369	0.367	0.307	0.263	0.343	0.435	0.434	0.447	0.448	0.411	0.453
LCLC-103H	0.672	0.645	0.68	0.743	0.549	0.567	0.605	0.401	0.462	0.411	1.06	1.04	0.947	0.836	0.327	0.331	0.316	0.308	0.289	1.05
LK-2	0.629	0.723	0.886	0.801	0.477	0.242	0.188	0.156	0.18	0.212	0.234	0.202	0.293	0.29	0.417	0.386	0.301	0.297	0.321	0.291
LOU-NH91	0.776	0.793	0.794	0.869	0.679	0.734	0.769	0.767	0.76	0.642	0.747	0.715	0.772	0.726	0.72	0.676	0.689	0.673	0.597	0.701
LU99A	0.584	0.522	0.586	0.502	0.353	0.333	0.313	0.254	0.276	0.25	0.636	0.558	0.625	0.444	0.777	0.846	0.767	0.841	0.658	0.602
LXF-289	0.592	0.67	0.738	0.634	0.537	0.784	0.79	0.779	0.884	0.55	0.93	0.891	0.797	0.773	0.463	0.542	0.508	0.482	0.376	0.911
NCI-H522	0.758	0.74	0.7	0.758	0.778	0.857	0.804	0.766	0.633	0.811	–	–	–	–	0.769	0.627	0.677	0.607	0.566	–
NCI-H1299	–	–	–	–	–	–	–	–	–	–	0.943	0.976	0.965	0.69	–	–	–	–	–	0.971
NCI-H1395	1.05	0.97	0.992	1	0.872	0.685	0.626	0.558	0.596	0.621	–	–	–	–	0.511	0.432	0.435	0.453	0.432	–
NCI-H1563	–	–	–	–	–	0.85	0.72	0.732	0.763	0.644	0.842	0.793	0.817	0.87	0.654	0.7	0.695	0.633	0.648	0.775
NCI-H1648	0.437	0.378	0.427	0.465	0.417	0.229	–	–	0.209	0.265	–	–	–	–	–	–	–	–	–	–
NCI-H1703	–	–	–	–	–	–	–	–	–	–	0.55	0.777	0.786	0.625	–	–	–	–	–	0.723
NCI-H1793	0.433	0.407	0.443	0.47	0.426	0.302	0.3	0.261	0.293	0.186	–	–	–	–	0.301	0.379	0.404	0.402	0.241	–
NCI-H2342	0.667	0.82	0.791	0.886	0.769	0.567	0.617	0.636	0.602	0.622	–	–	–	–	0.557	0.605	0.52	0.597	0.523	–
SW 900	0.821	1.18	0.855	0.614	0.497	0.452	0.543	0.582	0.719	0.276	–	–	–	–	0.474	0.68	0.521	0.568	0.516	–
